Measured values: patent publication US6642265B1, “Thrombopoietin mimetics” (SmithKline Beecham Corporation, priority 2002, dated 2003)

What was measured:
TPO receptor = target: T1, TPO receptor (Homo sapiens, UniProt P40238); assay: Luciferase assay in TPO-responsive BaF3 cell line; format: cell-based; conditions: TPO-responsive murine BaF3 cells
T1 construct: expressed in transfected cells; host or cells: murine BaF3 cells
T1 sequence (P40238 26-635): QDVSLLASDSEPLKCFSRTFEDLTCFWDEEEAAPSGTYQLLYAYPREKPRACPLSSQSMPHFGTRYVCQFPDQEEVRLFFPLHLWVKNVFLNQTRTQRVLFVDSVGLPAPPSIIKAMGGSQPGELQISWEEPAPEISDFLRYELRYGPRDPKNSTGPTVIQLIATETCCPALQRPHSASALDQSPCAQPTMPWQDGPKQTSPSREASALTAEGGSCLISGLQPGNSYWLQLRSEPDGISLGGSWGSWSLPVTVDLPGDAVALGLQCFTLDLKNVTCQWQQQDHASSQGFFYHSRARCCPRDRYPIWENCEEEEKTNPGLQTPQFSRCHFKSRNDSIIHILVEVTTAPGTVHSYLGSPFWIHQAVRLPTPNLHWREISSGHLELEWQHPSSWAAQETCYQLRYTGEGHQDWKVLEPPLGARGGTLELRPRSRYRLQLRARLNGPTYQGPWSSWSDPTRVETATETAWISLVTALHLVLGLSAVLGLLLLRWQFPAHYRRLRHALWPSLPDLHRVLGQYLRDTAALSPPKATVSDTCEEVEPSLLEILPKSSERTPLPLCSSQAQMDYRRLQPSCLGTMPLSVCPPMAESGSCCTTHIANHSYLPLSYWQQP
Protocol: Compounds of the present invention were tested for potency as mimetics of the TPO receptor in a Luciferase assay such as described in Lamb, et al., Nucleic Acids Research 23: 3283-3289 (1995) and Seidel, et al., Proc. Natl. Acad. Sci. USA 92: 3041-3045 (1995) by substituting a TPO-responsive BaF3 cell line (Vigon et a). Proc. Natl. Acad. Sci. USA 1992, 89, 5640-5644) for the HepG2 cells utilized therein. The murine BaF3 cells express TPO receptors and closely match the pattern of STAT (signal transducers and activators of transcription) activation observed in primary murine and human bone marrow cells.

melting point | EC50 (TPO receptor) [µM] | activity relative to TPO in the luciferase assay (TPO receptor; efficacy printed with the EC50) [% TPO] | SMILES
240 °C (dec.) | – | – | Cc1ccc(-n2nc(C)c(N=Nc3cc(Cl)cc(S(=O)(=O)O)c3O)c2O)cc1C [Example 11, 5-Chloro-3-{[1-(3,4-dimethylphenyl)-5-hydroxy-3-methyl-1H-pyrazol-4-yl]azo}-2-hydroxybenzenesulfonic Acid]
– | 1.8 | 50 | Cc1ccc(-n2nc(C)c(N=Nc3ccc(C(=O)O)cc3O)c2O)cc1C [Example 6, 4-{[1-(3,4-Dimethylphenyl)-5-hydroxy-3-methyl-1H-pyrazol-4-yl]azo}-3-hydroxybenzoic Acid]
258 to 260 °C (dec.) | – | – | Cc1nn(-c2ccc(OCc3ccccc3)cc2)c(O)c1N=Nc1ccc(C(=O)O)cc1O [Example 3, 4-{[1-(4-Benzyloxyphenyl)-5-hydroxy-3-methyl-1H-pyrazol-4-yl]azo}-3-hydroxybenzoic Acid]
